Assay results as given in PMC6042386, “Molecular diversity and function of jasmintides from Jasminum sambac” (BMC Plant Biology, 2018).
Where a SMILES comes first, the peptide text is derived from it. Bridges are numbered along the chain shown (N, C = ends). [ ]: non-standard residue; d: D form. pGlu = O=C1CC[C@@H](C(=O)O)N1

Tests used:
trypsin = experiment: Enzymatic stability assay, endopeptidase trypsin; format: in vitro ADME; settings: 37 °C, manufacturer's buffer, up to 6 h, quenched with 1 M hydrochloric acid, UPLC peak area, MALDI-MS, three independent experiments, mean (n = 3), read-out: jS3 remaining intact with trypsin
Experimental: (§1) For the thermal stability assay, jS3 were heated in boiling water for 1 h. At each time interval (1.0 h), a 30-μL sample was aliquoted and quenched in an ice bath for 15 min. For the acid stability assay, jS3 and jS4 were incubated in hydrochloric acid (pH 2.0) for 6 h. At each time interval (2, 4 and 6 h), a 30-μL sample was aliquoted and quenched by adding 1 M sodium hydroxide. For the enzymatic stability assay, jS3 and jS4 were incubated for 6 h at the optimal temperature with a buffer solution, as recommended by the manufacturer. At each time interval (2, 4 and 6 h), a 30-μL sample was aliquoted and quenched by adding 1 M hydrochloric acid. For the serum stability assay, jS3 were incubated with 25% human AB-type male serum in phenol red-free Dulbecco’s modified Eagle’s medium at 37 °C for 24 h. At each time interval (4, 8, 12 and 24 h), a 30-μL sample was aliquoted and quenched with 96% ethanol. Samples were kept at 4 °C for 15 min and then centrifuged at 18,000 rpm for 10 min. For all stability assays, the reaction mixture was analyzed by UPLC and monitored by MALDI-MS. The areas under the peak prior to and after treatment were integrated to determine stability. For each stability assay, three independent experiments were performed. At each time point, the sample was quenched by the specific reagent aforementioned and analyzed by UPLC in triplicates.

[1] = Human serum stability assay; format: in vitro ADME; settings: 25% human AB-type serum; 25% human AB-type male serum in phenol red-free DMEM, 37 °C, up to 24 h; quenched with 96% ethanol; UPLC peak area, MALDI-MS; three independent experiments, mean (n = 3); read-out: jS3 remaining intact after incubation with human serum
Experimental: as §1

[2] = tested on: Tenebrio molitor mealworm larvae; experiment: Feeding deterrent no-choice assay; format: in vivo; settings: 24 h, 29 ± 1 °C in the dark, 30 larvae per concentration
Experimental: The antifeedant activity was examined using a no-choice assay. Oat flakes were soaked in different concentrations of jS3 (0.5 to 30 mg/g of oat) and lyophilized. The control diet was prepared in the same manner without addition of jS3. Ten T. molitor larvae of similar weights (41 ± 3 mg) were placed in a tissue culture dish with 500 mg of oats. The dishes were transferred into a rearing chamber and kept at 29 ± 1 °C in the dark. After 24 h, the remaining oat flakes were weighed, and the amount consumed was calculated. In total, 30 larvae were used for each concentration, and three independent biological experiments were performed. The feeding deterrence activity was determined as follows: Feeding Deterrence IndexFDI=C−T∗100/C+T
where C represents the average weight of consumed control diet and T represents the average weight of consumed treatment diet within the groups. The overall differences in feeding amounts were compared to the control and were compared to each other using one-way ANOVA.

insect Sf9 cells = experiment: Co-incubation of insect Sf9 cells with jS3 (morphology, mortality); format: cell-based; settings: concentrations up to 100 μM, co-incubation (Figure S6)
[3] = Acid stability assay (hydrochloric acid, pH 2.0); format: physicochemical; settings: hydrochloric acid pH 2.0, 37 °C, up to 6 h; quenched with 1 M sodium hydroxide; UPLC peak area, MALDI-MS; three independent experiments, mean (n = 3); read-out: jasmintide remaining under acidic conditions
Experimental: as §1

T. molitor larvae = experiment: Effect of jasmintide on the growth of larvae; format: in vivo, Tenebrio molitor
Experimental: At day 0, 10 T. molitor larvae of similar weights (43 ± 2 mg and 47 ± 2 mg in the treatment and control sets, respectively) were fed 200 mg of a diet containing 1 mg of jS3/g of oats. Every three days, the weights of individual larva were recorded, and larvae were transferred to a new dish with the same amount of supplemented diet to maintain a continuous supply. Three independent biological experiments were carried out over a period of 9 days. The control diet was prepared in the same manner without the addition of jS3. Student’s t-test was used to compare the mean with the control.

carboxypeptidase A = experiment: Enzymatic stability assay, exopeptidase carboxypeptidase A; format: in vitro ADME; settings: 37 °C, manufacturer's buffer, up to 6 h, quenched with 1 M hydrochloric acid, UPLC peak area, MALDI-MS, three independent experiments, mean (n = 3), read-out: jS3 remaining intact with carboxypeptidase A
Experimental: as §1

[4] = Thermal stability assay (boiling water); format: physicochemical; settings: boiling water (100 °C), quenched in ice bath 15 min, UPLC peak area before/after, monitored by MALDI-MS, three independent experiments, mean (n = 3), read-out: jasmintide remaining after thermal treatment
Experimental: as §1

With `CC[C@H](C)[C@H](NC(=O)[C@H](CC(N)=O)NC(=O)[C@@H]1CSSC[C@@H]2NC(=O)[C@H](CC(=O)O)NC(=O)[C@H](CCCNC(=N)N)NC(=O)[C@H](CO)NC(=O)[C@H]([C@@H](C)O)NC(=O)[C@H](CCC(N)=O)NC(=O)[C@@H]3CSSC[C@H](NC(=O)[C@H](C(C)C)NC(=O)[C@H]([C@@H](C)O)NC(=O)[C@H](Cc4c[nH]c5ccccc45)NC(=O)[C@H]([C@@H](C)CC)NC(=O)[C@H]([C@@H](C)CC)NC(=O)[C@H](Cc4ccc(O)cc4)NC(=O)[C@H](CC(N)=O)NC2=O)C(=O)N[C@@H](CCCNC(=N)N)C(=O)N[C@@H](CC(=O)O)C(=O)NCC(=O)N[C@@H](CSSC[C@H](NC(=O)[C@H](CC(C)C)NC(=O)[C@@H]2CCC(=O)N2)C(=O)N[C@@H](CC(C)C)C(=O)N[C@@H](CC(C)C)C(=O)N3)C(=O)N1)C(=O)N[C@@H](CO)C(=O)O` [jS3] ([pGlu]LCLLCQTSRDCNYIIWTVCRDGCCNIS-OH; disulfide 3-24, 6-20, 12-25; C-terminus assumed) the remaining at 6 h (trypsin) was greater than 80%, the remaining at 24 h [1] was greater than 79% and the “feeding deterrence index (FDI)” value ([2]; 1 mg/g of jasmintide in the diet (oat flakes), three independent experiments) was 42.9%. For the same compound, the “feeding deterrence index (FDI)” value ([2]; 30 mg/g of jasmintide in the diet (oat flakes), highest value) was 93.6%, the “change in morphology and mortality rate of Sf9 cells” value (insect Sf9 cells) was “insignificant effects” and the remaining at 6 h [3] was greater than 90%. The “average body weight of the treatment group after nine-day treatment” value (T. molitor larvae; after nine days on diet containing 1 mg of jS3 per gram of oat flakes, n = 30 larvae, significantly less than control (47.4 to 71.2 mg)) was 62.2 mg, the “average body weight of the treatment group, start” value (T. molitor larvae; day 0, diet containing 1 mg of jS3 per gram of oat flakes, n = 30 larvae) was 44.3 mg and the “fatality of larvae during the period of treatment” value (T. molitor larvae; nine-day treatment, 1 mg of jS3 per gram of oat flakes) was “No fatality”. It also gave a remaining at 6 h (carboxypeptidase A) greater than 80% and a remaining at 1 h [4] greater than 92%.
